Experimental data: patent EP0429187A1, “Enhanced bioavailability adsorbates” (ELAN C[…].L.C., priority 1989, dated 1991)

Columns and labels:
[1] = Comparison of enhanced bioavailability DHEA adsorbate with micronised DHEA: plasma levels (AUC) of DHEA base and sulphate; assay type: in vivo; settings: reference AUC arbitrarily denoted as 100%, 500 mg oral every 8 hours over 24 hours, 9 healthy male human volunteers, read-out: F = absolute bioavailability (DHEA Base)
Description: In this study an enhanced bioavailability DHEA adsorbate powder of the type prepared in Example 2 was compared with standard micronised DHEA in capsule form. For the formulation in accordance with the invention (hereinafter referred to as 'test') the dose administered was 500 mg of DHEA as adsorbate in powder-sachet form. The standard micronised DHEA (hereinafter referred to as 'reference') was administered as 2 x 250 mg capsules. […] In the study, the test substance was compared in a group of 9 healthy male human volunteers against the reference substance. The dosage regime was 500 mg every 8 hours over a 24 hour period. Plasma samples were taken in each case at intervals up to and including 24 hours post initial dosing and the samples were assayed for DHEA (base and sulphate) levels. DHEA sulphate levels were measured because a substantial portion of the DHEA is converted to the sulphate form in vivo. For the reference substance, the area under the curve (AUC) value are arbitrarily denoted as 100%. The AUC value was then compared and assigned an absolute bioavailability value (%) using the 100% as baseline.

[2] = Mean urinary recoveries for DHEA base in the comparison study; assay type: in vivo; settings: human volunteers

**Q.** What does the source list for C[C@]12CC[C@H](O)CC1=CC[C@@H]1[C@@H]2CC[C@]2(C)C(=O)CC[C@@H]12 [REFERENCE, dehydroepiandrosterone]?
**A.** bioavailability [1]: 100%; Mean Urinary Recoveries for DHEA Base ([2]; Day 0): 22.55 ± 8.50 mg/24 h.; Mean Urinary Recoveries for DHEA Base ([2]; Day 1): 460.67 ± 179.87 mg/24 h.; Mean Urinary Recoveries for DHEA Base ([2]; Day 2): 799.55 ± 191.90 mg/24 h.; Mean Urinary Recoveries for DHEA Base ([2]; Day 3): 745.88 ± 179.92 mg/24 h.; Mean Urinary Recoveries for DHEA Base ([2]; Day 4): 694.33 ± 162.07 mg/24 h.; Mean Urinary Recoveries for DHEA Base ([2]; Day 5): 800.22 ± 156.19 mg/24 h.
